Reference: patent publication US20260240844A1, “INHIBITORS OF CHD1L AND USES THEREOF” (The Regents of the University of Colorado, a body corporate, priority 2023, published 2026)
Read-outs that look alike come from different tables or passages of the source.

How the values were obtained:
Colo679 cells = assay: DDR biomarkers (pATM, RAD51, 53BP1, γ-H2AX) in Colo679 cells; type: cell-based; conditions: 4 μM
Excerpt: (§1) Etoposide was used as a control to show upregulation of DDR pathway biomarkers.

Colo678 cells = assay: Colo678 cell viability, combination with chemotherapy; type: cell-based; conditions: Colo678 cells, 72 h; combined with SN-38
SW620 Parental cells = assay: SW620 Parental cell viability, combination with chemotherapy; type: cell-based; conditions: SW620 cells
AIF in SUM149PT cells = assay: AIF immunofluorescence in SUM149PT (SUM149) cells; type: cell-based; conditions: SUM149 cells, 4 μM
Excerpt: CHD1Li-mediated PAR translocation to the cytoplasm activates PARthanatos as a cell death mechanism. Parthanatos is a form a programmed cell death different from apoptosis and known to be mediated by PARP1 overactivation. The unique events occurring during parthanatos are: PARP1 rapid activation, accumulation of PAR and nuclear translocation of apoptosis inducing factor (AIF). Without being bound by any particular theory, accumulation of PAR in the cytoplasm caused by CHD1Li can also mediate parthanatos. To better understand the link between PAR translocation to the cytoplasm and cell death, immunofluorescence to measure the activation of caspase-3 and the subcellular localization of AIF after treatment with SOC drugs and Compound 6 in SUM49PT cells was used. […] Without being bound by any particular theory, this might be caused by the mitochondrial outer membrane permeabilization, which triggers release of mitochondrial proteins like AIF or cytochrome c, activating caspase-3 by its cleavage and leading to apoptosis. […] Moreover, when combining CHD1L inhibition with SOC drugs, the cell death mechanism shifts from apoptosis to parthanatos, evidenced by a significant increase in AIF nuclear translocation and decrease in activation of caspase-3 (FIG. 25D-E).
(§2) The ability of Compounds 12, 15 and 16 to localize AIF was tested in SUM149 (breast cancer) and MDA-MB-231 (TNBC) cell lines. A comparison of the relative distribution of AIF in nuclei (a) versus cytoplasm (b) in SUM149 cells and nuclei (c) versus cytoplasm (d) in MDA-MB-231 cells in the presence of 4 μM Compounds 12, 15 and 16 are shown in FIG. 28. […] Similarly, AIF concentration in the cytoplasm of MDA-MB-231 cells decreased by about 0.5 after administration with Compound 15. After treatment with Compound 16, the relative concentration of AIF in the nuclei of SUM149 cells increased by about 0.5-fold, and the concentration of AIF in the cytoplasm decreased by about 0.4-fold. In MDA-MB-231 cells, the relative concentration of AIF in the cytoplasm decreased by about 0.5-fold, while the concentration of AIF increased in the nuclei by about 0.1-fold.

MiaPaca2 cells = assay: MiaPaca2 cell viability, combination with chemotherapy; type: cell-based; conditions: MiaPaca2 cells
Excerpt: The cell viability assays and Bliss synergy analyses are as described above in Examples 1-9 and 11-12.

HCT116 Parental cells = assay: HCT116 Parental cell viability, combination with chemotherapy; type: cell-based; conditions: HCT116 cells
AIF in MDA-MB-231 cells = assay: AIF localization in MDA-MB-231 cells; type: cell-based; conditions: 4 μM
Experimental: as §2

[1] = test system: SUM149 and MDA-MB-231 cells; assay: DDR biomarkers in breast cancer cells; type: cell-based; conditions: 4 μM
Excerpt: as §1

SW948 tumor organoids = assay: cells
Experimental: ATM is an important protein involved in the initial stages of the DNA damage response. […] ATM mutations are important markers being developed to identify metastatic CRC (mCRC) patients that may be sensitive to DNA damaging chemotherapy.
Synergy was assessed using the Bliss model.

[2] = test system: SW620 CRC cells cultured as tumor organoids; assay: Viability of isolated EMT phenotype SW620 tumor organoids; type: cell-based; conditions: SW620 E, E/M, 72 h, combined with Compound 6
Experimental: FIG. 5A provides graphs showing isolated quasi EMT SW620 CRC cells E (red), E/M (yellow), and M (green) were cultured as tumor organoids and treated with SN38 combined with Compound 6 over 72 h as indicated. […].
CHD1L also regulates DNA repair via CHD1L/TCF-driven EMT by upregulating ZEB1 in CRC. ZEB1 promotes mesenchymal cell survival by upregulating the DDR. CHD1Li may sensitize isolated quasi EMT phenotypes by inhibiting EMT and DNA repair. To test this, combination studies with Compound 6 and chemotherapy measuring the viability of isolated EMT dual-reporter quasi-E, -E/M, and -M SW620 (HR-proficient) cells and HCT116 (HR-deficient) cells cultured as tumor organoids were tested. […]. […] […]. Taken together, CHD1Li synergized with chemotherapy and targeted therapy to overcome EMT-mediated drug resistance in CRC.

SW620 tumor organoids = conditions: 72 h; for IC50: read-out: IC50 SN38
[3] = SW620 tumor organoids, + Compound 6.11 2.75 μM

Cc1cc(Nc2ccc(NC(=O)c3cc(Br)c[nH]3)cc2)nc(N2CCCC2)n1 [Compound 12, 4-bromo-N-(4-((6-methyl-2-(pyrrolidin-1-yl)pyrimidin-4-yl)amino)phenyl)-1H-pyrrole-2-carboxamide]
amount of 53BP1 (Colo679 cells): decrease the amount of 53BP1 | amount of RAD51 (Colo679 cells): decrease in RAD51 | amount of pATM (Colo679 cells): increased the amount of pATM | γ-H2AX concentrations (Colo679 cells): decreased | calculated mean synergy score (Colo678 cells): about 26 | calculated mean synergy score (SW620 Parental cells; 72 h, combined with SN-38): about 53 | calculated mean synergy score (SW620 Parental cells; combined with 5-FU): about 39 | decrease in AIF in the cytoplasm (AIF in SUM149PT cells): decrease in AIF in the cytoplasm | increase in AIF in the nucleus (AIF in SUM149PT cells): ~1 fold | calculated mean synergy score (MiaPaca2 cells; combined with 5-FU): about 57 | calculated mean synergy score (MiaPaca2 cells; combined with SN-38): about 18 | calculated mean synergy score (HCT116 Parental cells; 72 h, combined with SN-38): about 20 | calculated mean synergy score (HCT116 Parental cells; combined with 5-FU): about 19 | increase in AIF in the nuclei (AIF in MDA-MB-231 cells): localized in both the nuclei and remained in the cytoplasm | amounts of γ-H2AX and 53BP1 [1]: overall decreases in the amounts of γ-H2AX and 53BP1

Cc1cc(Nc2ccc(NC(=O)Cc3c[nH]c4c(Cl)cccc34)cc2)nc(N2CCCC2)n1 [Compound 16, 2-(7-chloro-1H-indol-3-yl)-N-(4-((6-methyl-2-(pyrrolidin-1-yl)pyrimidin-4-yl)amino)phenyl)acetamide]
amount of 53BP1 (Colo679 cells): decrease the amount of 53BP1 | amount of pATM (Colo679 cells): increased the amount of pATM | γ-H2AX concentrations (Colo679 cells): decreased | calculated mean synergy score (Colo678 cells): about 26 | decrease in AIF in the cytoplasm (AIF in SUM149PT cells): about 0.4 fold | increase in AIF in the nucleus (AIF in SUM149PT cells): about 0.5 fold | decrease in AIF in the cytoplasm (AIF in MDA-MB-231 cells): about 0.5 fold | increase in AIF in the nuclei (AIF in MDA-MB-231 cells): about 0.1 fold | amounts of γ-H2AX and 53BP1 [1]: overall decreases in the amounts of γ-H2AX and 53BP1

CCc1c2c(nc3ccc(O)cc13)-c1cc3c(c(=O)n1C2)COC(=O)[C@]3(O)CC [SN-38]
increase in potency of the chemotherapy (SW948 tumor organoids; SW948 tumor organoids, combined with Compound 6): 1000 fold | improvement of cytotoxic potency (SW948 tumor organoids; SW948 tumor organoids, combined with Compound 6.11): 1,000 fold | IC50 (SW948 tumor organoids; read-out: IC50 SN38, SW948 tumor organoids, SN38 alone): 3160 nM | IC50 (SW948 tumor organoids; read-out: IC50 SN38, SW948 tumor organoids, combined with Compound 6.11): 3.2 nM | IC50 (SW948 tumor organoids; read-out: IC50 SN-38, SW948 tumor organoids, combined with Compound 6): ~3 nM | IC50 (SW948 tumor organoids; read-out: IC50 of chemotherapy alone, SW948 chemo resistant tumor organoids): ~3000 nM | increase of SN38 cytotoxic potency [2]: hundreds-of-fold to thousands-of-fold | increase in cytotoxic potency compared to drug alone (SW620 tumor organoids; [3]): ~ 600 fold | IC50 (SW620 tumor organoids; SW620 (ATM wt) tumor organoids, SN38 alone): ~600 nM | IC50 (SW620 tumor organoids; [3]): ~1 nM
